Measured values from US11346839B2, “Method for determining the interaction between a ligand and a receptor” (INSINGULO AB, priority 2018, dated 2022).
Where two headings read alike, the source gives them in different places.

Target: human-thrombin (Homo sapiens, UniProt P00734)
Details: Example 2, thrombin 1 pM
Method: To yield liposomes with a diameter of ˜100 nm first the required lipids were solved in chloroform and mixed. In total 5 mg 2-Oleoyl-1-palmitoyl-sn-glycero-3-phosphocholine, 0.01 mg, 1,2-dioleoyl-sn-glycero-3-phosphoethanolamine-N-dibenzocyclooctyl and 0.005 mg 1,2-dipalmitoyl-sn-glycero-3-phosphoethanolamine-N-(lissamine rhodamine B sulfonyl) were mixed together. The lipid mixture was vacuum dried overnight. The dried lipids were hydrated in 1 ml HBS (150 mM NaCl, 20 mM/L HEPES at pH7.2) under gentle agitation. The lipid suspension was extruded through a PC-membrane with 100 nm pore size eleven times. Concentration of the liposomes was determined by light absorption at 544 nm and the concentration of the liposome solution was adjusted to 2.5 mg/ml. This equals a liposome concentration of approximately 30 nM.
To immobilize thrombin at the liposomes via click chemistry an azide-group was introduced to thrombin via NHS coupling. Therefore, 100 μL of human-thrombin at 2 mg/ml was mixed with 200 μL high salt PBS-buffer (10 mM Na2HPO4, 1.8 mM KH2PO4, 400 mM NaCl+33.5% Glycerol (v/v) at pH 7.4 and 13 μL NHS-PEG4-Azide at 10 mM. The mixture was incubated for 30 minutes at RT. The reaction was stopped by the addition of 500 μL high salt PBS-buffer (10 mM Na2HPO4, 1.8 mM KH2PO4, 400 mM NaCl+33.5% Glycerol (v/v) at pH 6.6.
1.5 μL of the thrombin-azide were mixed with 48.5 μL icecold CHES-buffer (20 mM CHES, 150 mM NaCl) at pH 8.5 and subsequently 50 μL of the liposome solution is added. This mix was stored for at least 30 minutes on ice. 10 μL of the reaction mix was diluted with 990 μL icecold CHES-buffer (20 mM CHES, 150 mM NaCl) at pH 8.5.
After curing, into each well of the microplate 10 μL of a solution containing 1 mg/ml PLL-g-PEG and 1 mg/ml PLL-g-PEG-biotin are added. The plate was incubated for at least 1 h under gentle orbital agitation. After the incubation each well was washed 10-times with HBS-buffer. The dilution ratio of every washing step was at least 1:10. […]
The single molecule microscope was based on a Nikon Ti-E base. […] Images are recorded via a [sequence] […]

`N=C(N)c1ccc(CNC(=O)[C@@H]2CCN2C(=O)[C@H](NCC(=O)O)C2CCCCC2)cc1` [melagatran] was tested, and the kobs (one hundred wells summed, melagatran 7.4 nM (FIG. 6)) was 0.22 s⁻¹, the kobs (single well, melagatran 7.4 nM (FIG. 4)) was “could not be reliably fitted” and the kobs (two wells summed, melagatran 7.4 nM (FIG. 5)) was 0.43 s⁻¹.
